# Measurements as given in patent publication US9555023B2, “Pharmaceutical salts and polymorphs of a factor Xa inhibitor” (Millennium Pharmaceuticals, Inc., priority 2005, dated 2017).
# Where two headings read alike, the source gives them in different places.
# Assays:
# [1] = Secondary screen: crystallinity (XRPD); assay type: physicochemical; conditions: for Crystallinity: secondary screen, Table 5
# Description: X-Ray Powder Diffraction patterns were collected on a Siemens D5000 diffractometer using CuKα radiation (40 kV, 40 mA), […], automatic divergence and receiving slits, a graphite secondary monochromator and a scintillation counter.
# Samples run under ambient conditions were prepared as flat plate specimens using powder. Approximately 35 mg of the sample was gently packed into a cavity cut into polished, zero-background (510) silicon wafer. The sample was rotated in its own plane during analysis. The details of the data collection are given for the method in Table 2 below: […]
# [2] = Stability: hydrolyzed amidine content by HPLC after 57° C. / 75% humidity; assay type: physicochemical; conditions: for Hydrolyzed Amidine Content (3 days) / Hydrolyzed Amidine Content (6 days) / Hydrolyzed Amidine Content (10 days): 57° C., 75% room humidity, percentage of the main peak
# Description: To assess the thermal and hydrolytic stability of the salt, tests known to those of skill in the art are performed.
# The sample solvent was methanol and a mobile phase modifier of 0.1% trifluoroacetic acid was employed. Data were collected after 3, 6 and 10 days except data for the propionate was collected at 0, 3, and 8 days. […] All other impurity peaks were disregarded in the calculation
# [3] = Primary salt screen (purity, crystallinity and stability of precipitated salts); conditions: 20 mg free base in 10% (aq.) THF, 1.1 eq. acid in ethanol, tert-butyl methyl ether to induce precipitation
# Description: To 20 mg of the free base in 3 mL of 10% (aq.) THF mixture was added 1.1 eq. of the acid in 1 mL ethanol. The mixture was shaken for 2 hours, followed by the addition of 2 mL of tert-butyl methyl ether in order to induce precipitation and shaken for another 2 hours. The samples were then filtered, dried and then analyzed to judge their purity, crystallinity and stability.
# [4] = Gravimetric vapour sorption (GVS) water sorption; assay type: physicochemical; conditions: GVS isotherm, XRPD post GVS
# Description: All samples were run on a Hiden IGASorp moisture sorption analyzer running CFRSorp software. Sample sizes were typically 10 mg. A moisture adsorption desorption isotherm was performed as outlined below (2 scans giving 1 complete cycle). All samples were loaded/unloaded at typical room humidity and temperature (40% RH, 25° C.). All samples were analyzed by XRPD post GVS analysis. The standard isotherm was performed at 25° C. at 10% RH intervals over a 0-90% RH range.
# [5] = Solubility in water by HPLC; assay type: physicochemical
# Description: This was measured by suspending enough salt in 0.25 mL of solvent (water) to give a maximum final concentration of ≧10 mg/mL of the parent free form of the salt. The suspension was equilibrated at 25° C. for 24 hr followed by a pH check and filtration through a glass fibre C 96 well plate. The filtrate was then diluted down 101×. Quantitation was by HPLC with reference to a standard dissolved in DMSO at approx 0.1 mg/mL. Different volumes of the standard, diluted and undiluted tests were injected. […] If there was sufficient solid in the filter plate the XRPD was normally checked for phase changes, hydrate formation, amorphization, crystallization, etc.
# [6] = Log P determination by potentiometric titration (Sirius GlpKa); assay type: physicochemical; conditions: Octanol:ISA water
# Description: This was by potentiometric titration on a Sirius GlpKa instrument using three ratios of Octanol:ISA water to generate Log P, Log Pion, and Log D values. The data was refined using Refinement Pro software version 1.0. Predictions of Log P were made using ACD Ver. 8.08 and Syracuse KNOWWIN Ver. 1.67 software.
# factor Xa = factor Xa (Homo sapiens, UniProt P00742); conditions: cited from earlier work
# Chain of factor Xa (P00742 235-488 limits assumed): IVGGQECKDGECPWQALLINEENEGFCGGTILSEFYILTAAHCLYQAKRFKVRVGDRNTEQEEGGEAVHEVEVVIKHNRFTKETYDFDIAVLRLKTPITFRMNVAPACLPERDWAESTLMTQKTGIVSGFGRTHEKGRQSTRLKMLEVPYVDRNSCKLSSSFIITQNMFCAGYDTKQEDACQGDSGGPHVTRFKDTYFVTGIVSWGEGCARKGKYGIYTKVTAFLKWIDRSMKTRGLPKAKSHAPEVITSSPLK
# Chain of factor Xa (P00742 41-179 partner limits assumed): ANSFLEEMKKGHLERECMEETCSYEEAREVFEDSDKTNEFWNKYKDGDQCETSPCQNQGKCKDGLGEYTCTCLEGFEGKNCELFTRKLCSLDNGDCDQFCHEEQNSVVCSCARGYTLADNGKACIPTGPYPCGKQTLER
compound,measurement,setting,value
CC(=O)O [Acetate],crystallinity (in words),[1],good crystallinity
same,Crystallinity,[1],crystalline
same,thermal and hydrolytic stability (in words),[2],did not possess good thermal and hydrolytic stability
same,Hydrolyzed Amidine Content (3 days),[2],0.62-1.11%
same,Hydrolyzed Amidine Content (6 days),[2],2.30-3.56%
same,Hydrolyzed Amidine Content (10 days),[2],3.61-7.90%
Cl [Hydrochloric],Crystallinity,[1],amorphous
same,"Salt (primary screen grade: purity, crystallinity and stability)",[3],+++
COc1ccc(NC(=O)c2ccc(C(=N)N(C)C)cc2)c(C(=O)Nc2ccc(Cl)cn2)c1 [Maleate],moisture stability,[4],excellent moisture stability
same,solubility at 24 h,"[5]; thermodynamic from solid, water, 25° C., 24 hr, as parent free form",2050 to 2270 µg/mL
same,Measured LogPion,[6],−0.08
same,logD,[6]; read-out: Measured LogD,0.09
same,logP,[6]; read-out: Measured LogP,3.09
same,thermal and hydrolytic stability (in words),[2]; listed as maleate salt,best stability observed
same,thermal and hydrolytic stability (in words),[2]; listed as maleate salt of Formula II,excellent
O=C(O)CC(=O)O [Malonic],"Salt (primary screen grade: purity, crystallinity and stability)",[3],−
"O=S(=O)(O)c1cccc2c(S(=O)(=O)O)cccc12 [Naphthalene-1,5-disulfonic]","Salt (primary screen grade: purity, crystallinity and stability)",[3],+
O=C(O)CCC(=O)O [Succinic],Crystallinity,[1],amorphous
same,"Salt (primary screen grade: purity, crystallinity and stability)",[3],+++
COc1ccc(NC(=O)c2ccc(C(=N)N(C)C)cc2)c(C(=O)Nc2ccc(Cl)cn2)c1 [compound of Formula I],solubility (in words),[5],did not exhibit optimum solubility
same,factor Xa inhibition (in words),factor Xa,potent factor Xa inhibitor
Adipic,"Salt (primary screen grade: purity, crystallinity and stability)",[3],++
Propionic,Crystallinity,[1],crystalline
same,Hydrolyzed Amidine Content (3 days),[2],2.22%
same,Hydrolyzed Amidine Content (6 days),[2],2.97%
same,Hydrolyzed Amidine Content (10 days),[2],1.71%
same,"Salt (primary screen grade: purity, crystallinity and stability)",[3],+++
